Measured values published in patent US6306897A, “Calanolides for inhibiting BTK” (Parker Hughes Institute, priority 1999, dated 2001).

What was measured:
[1] = target: T1, recombinant BTK (Mus musculus, UniProt P35991); assay: Recombinant BTK immune-complex kinase assay (baculovirus vector expression system); type: biochemical, murine; details: for inhibition of recombinant BTK, concentration dependence: BTK expressed in a baculovirus vector expression system; for IC50: recombinant BTK, kinase assay (Table 1)
T1 construct: made in house; host or cells: Insect cells (Sf21, IPLB-SF21-AE) with recombinant baculovirus from pFastBac1-BTK
Description: The effects of calanolides on the enzymatic activity of the tyrosine kinase BTK in kinase assays was evaluated using recombinant BTK, according to the methods previously reported (Mahajan et al., 1999, J Biol. Chem., 274:9587-9599).
Sf21 (IPLB-SF21-AE) cells, derived from the ovarian tissue of the fall armyworm Spodotera frugiperda, were obtained from Invitrogen and maintained at 26-28° C. in Grace's insect cell medium supplemented with 10% FBS and 1.0% antibiotic/antimycotic (GIBCO-BRL). Stock cells were maintained in suspension at 0.2-1.6×10^6 /ml in 600 ml total culture volume in 1 L Bellco spinner flasks at 60-90 rpm. Cell viability was maintained at 95-100% as determined by trypan blue dye exclusion.
To construct the recombinant baculovirus containing the murine BTK gene, the gene encoding BTK was excised from pBluescript SKII^+ vector (Stratagene) by digestion with BamHI. This fragment was then ligated into pFastBac1 (Gibco-BRL). The resulting vector, pFastBac1-BTK, was used to generate the recombinant baculovirus by site-specific transposition in E. coli DH10Bac cells (Gibco-BRL), which harbor a baculovirus shuttle vector (bacmid), bMON14272. The resulting recombinant bacmid DNA was introduced into insect cells by transfection with the standard liposome-mediated method using Cellfectin reagent (Gibco-BRL). Four days later, transfection supernatants were harvested for subsequent plaque purification and analyzed.
Immunoprecipitations, immune-complex protein kinase assays, and immunoblotting using the ECL chemiluminescence detection system (Amersham Life Sciences) were conducted as described previously (Mahajan et al., 1999, J. Biol. Chem., 274:9587-9599). Following electrophoresis, kinase gels were dried onto Whatman 3M filter paper and subjected to phosphoimaging on a Molecular Imager (Bio-Rad, Hercules, Calif.) as well as autoradiography on film. Similarly, all chemiluminescent BTK Western blots were subjected to three dimesional densitometric scanning using the Molecular Imager and Imaging Densitometer using the Molecular Analyst/Macontosh version 2.1 software following the specifications of the manufacturer (Bio-Rad). For each drug concentration, a BTK kinase activity index was determined by comparing the ratios of the kinase activity in phosphorimager units (PIU) and density of the protein bands in densitometric scanning units (DSU) to those of the baseline sample and using the formula: Activity Index=[PIU of kinase band/DSU of BTK protein band]test sample :[PIU of kinase band/DSU of BTK protein band]baseline control sample. Horse radish peroxidase-conjugated sheep anti-mouse, donkey anti-rabbit secondary antibodies and ECL reagents were purchased from Amersham (Oakbrook, Ill.).

[2] = system: RBL-2H3 mast cells; assay: β-hexosaminidase release from IgE/antigen stimulated RBL-2H3 mast cells; type: cell-based; details: 1 hour preincubation, IgE/DNP-BSA challenge 30 minutes
Description: (§1) RBL-2H3 cells were sensitized with monoclonal anti-DNP IgE antibody (0.24 mg/ml) for 1 hour at 37° C. in a 48-well tissue culture plate. RBL-2H3 cells were allowed to adhere to the plate, whereas bone marrow mast cells (BMMC) were used in suspension. Unbound IgE was removed by washing the cells with phosphate buffered saline. After washing the BMMC were re-suspended in RPMI-hepes buffer. PIPES-buffered saline containing 1 mM calcium chloride was added to the monolayers of the RBL-2H3 cells.
(§2) To study the effects of compound HI-D12, mast cells were incubated with compound HI-D12 at the indicated concentrations or vehicle for 1 hour prior to challenge. The cells were challenged with 20 ng/ml DNP-BSA for 30 minutes at 37° C. The plate was then centrifuged at 200 g for 10 minutes at 4° C. Supernatants were removed and saved. RBL-2H3 cell pellets were washed with phosphate buffered saline and solubilized in PIPES buffered saline containing 0.1% Triton X-100.
(§3) Leukotriene (LT) C4 levels were estimated in cell free supernatants by immunoassay using (LT) C4 ELISA kits obtained from Cayman Company (Ann Arbor, Mich.), according to the manufacturer instructions. β-hexosaminidase release was estimated in cell free supernatants and Triton X-100 solubilized pellets, using the method described in Ozawa et al, 1993, J. Biol. Chem., 268:1749-1756.

[3] = system: RBL-2H3 mast cells; assay: Leukotriene C4 release from IgE/antigen stimulated RBL-2H3 mast cells (LTC4 ELISA); type: cell-based; details: 1 hour preincubation, IgE/DNP-BSA challenge 30 minutes
Description: as §1, §2, §3

[4] = system: BALB/c mice; assay: Passive cutaneous anaphylaxis in mice (Evans blue dye extravasation); type: in vivo
Description: In order to examine the effect of HI-D12 on passive cutaneous anaphylaxis in mice, dorsal sides of the ears of BALB/c mice were injected intradermally with 20 ng of DNP-IgE (left ears) or PBS (right ears) in 20 μL volume using a 30-gauge needle, as previously described (Miyajima et. al., 1997, J. Clin. Invest. 99:901-914). After 20 hours, mice were treated with compound HI-D12 (15 or 50 mg/kg i.p.) twice at 1 hour intervals prior to the antigen challenge. Control mice were treated with an equal volume of vehicle. Thirty minutes after the last dose of compound HI-D12 or vehicle, mice were challenged with 100 μg antigen (DNP-BSA) in 200 μl 2% Evans blue dye intravenously. Mice were sacrificed by cervical dislocation 30 minutes after the antigen challenge. For quantitation of Evans blue dye extravasation as a measure of anaphylaxis-associated vascular hyperpermeability, 8 mm skin specimens were removed from the ears of mice, minced in 2 ml formamide and incubated at 80° C. for 2 hours in water bath to extract the dye. The absorbance was read at […]. The data were expressed as plasma exudation indices (i.e., times increase in optical density over PBS treated ears at 620 nm).

T1 sequence (P35991 whole entry): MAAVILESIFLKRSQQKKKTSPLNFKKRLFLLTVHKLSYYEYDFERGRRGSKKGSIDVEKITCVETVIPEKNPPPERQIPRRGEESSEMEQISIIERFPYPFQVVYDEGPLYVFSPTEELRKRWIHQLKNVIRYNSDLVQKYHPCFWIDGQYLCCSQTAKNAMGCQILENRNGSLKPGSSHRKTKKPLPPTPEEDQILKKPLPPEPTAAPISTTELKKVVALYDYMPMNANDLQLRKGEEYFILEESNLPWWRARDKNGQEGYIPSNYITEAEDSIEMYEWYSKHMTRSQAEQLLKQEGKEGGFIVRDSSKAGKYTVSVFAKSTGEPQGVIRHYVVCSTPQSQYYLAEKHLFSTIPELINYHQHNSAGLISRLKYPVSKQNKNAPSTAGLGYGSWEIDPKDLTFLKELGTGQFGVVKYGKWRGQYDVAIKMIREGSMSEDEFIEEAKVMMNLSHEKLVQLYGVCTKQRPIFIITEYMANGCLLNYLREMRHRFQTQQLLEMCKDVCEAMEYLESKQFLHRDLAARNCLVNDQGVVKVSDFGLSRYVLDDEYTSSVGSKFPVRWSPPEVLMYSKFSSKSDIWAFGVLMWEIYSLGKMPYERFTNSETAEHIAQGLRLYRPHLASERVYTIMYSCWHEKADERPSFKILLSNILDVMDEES

CCCc1cc(=O)oc2c3c(c4c(c12)OC(C)(C)C=C4)O[C@H](C)[C@@H](C)C3=O (relative stereo) [HI-D86, 10,11-trans-Dihydro-6,6,10,11-tetramethyl-4-propyl-2H,6H,12H-benzo[2-b: 3,4-b':5,6-b"]tripyran-2,12-dione]
inhibition of recombinant BTK, concentration dependence [1]: in a concentration-dependent fashion
IC50 [1]: 110 µM

CCCc1cc(=O)oc2c(C(=O)CC)c(O)c3c(c12)OC(C)(C)C=C3 [HI-D12, 6,6 Dimethyl-9-hydroxy-10-propionyl-4-propyl-2H,6H-benzo[1,2-b: 3,4-b']dipyran-2-one]
inhibition of recombinant BTK, concentration dependence [1]: in a concentration-dependent fashion
IC50 [1]: 29 µM
effect on release of preformed granule-associated β-hexosaminidase [2]: did not prevent the release of preformed granule-associated β-hexosaminidase
inhibition of LTC4 release [3]: inhibited the release of the newly synthesized arachidonic acid metabolite LTC4 in a concentration-dependent fashion
tolerability of dose level ([4]; 50 mg/kg dose level): nontoxic
inhibition of IgE/antigen induced plasma exudation ([4]; 50 mg/kg i.p., twice prior to antigen challenge): 70%

CCCc1cc(=O)oc2c3c(c4c(c12)OC(C)(C)C=C4)O[C@H](C)[C@@H](C)[C@@H]3O (relative stereo) [HI-D63, (±)-Calanolide A]
inhibition of recombinant BTK, concentration dependence [1]: in a concentration-dependent fashion
IC50 [1]: 130 µM
